Measured values: patent US10045977B2, “Use of nalmefene in non-alcoholic steatohepatitis” (TAIWANJ PHARMACEUTICALS CO., LTD., priority 2016, dated 2018)

Experiments:
[1] = test system: MCD diet fatty liver rats given E coli endotoxin (LPS); assay: Methionine-choline-deficient (MCD) diet rat model with LPS second hit; format: in vivo, Sprague Dawley rats; settings: for Prevention of liver injury following LPS in fatty liver rats: 0-30 mg/kg oral, FIG. 5; for Serum ALT change, in words: 6 h after LPS, p<0.05
Method: 20 Sprague Dawley rats were administered with Compound A by oral gavage once daily at 0, 5, 10, 20 or 30 mg/kg (4 rats/group) for 4 weeks. All animals were fed a methionine/choline deficient (MCD) diet (from Dyets, Inc) five times per week during the feeding period in order to produce a diet-induced fatty liver. Rats were weighed daily as well as food intake. At the end of four weeks, the rats were administered 2 mg/kg E coli endotoxin (LPS) IP and 6 hours later the rats were euthanized and liver tissue and serum collected. Liver and was harvested at time of death as was blood. Histology samples were also taken.

Kupffer cells = assay: LPS-stimulated release of TNF-α in Kupffer cells; format: cell-based, rat; settings: E. coli LPS; supernatant TNF-α at 2, 4, 6 hours; FIG. 1
Method: Kupffer cells were isolated by enzymatic digestion and purified by centrifugal elutriation from normal rats and cultured overnight. They were then stimulated with E. coli LPS either without or with Compound A added to the medium. TNF-α content in the supernatant was measured at 2, 4, and 6 hours.

[2] = test system: p38 MAP kinase phosphorylation in Kupffer cells; assay: LPS-induced p38 MAP kinase phosphorylation in Kupffer cells; format: cell-based, rat; settings: Compound A 100 ng/mL; 5 and 20 min; n=3 replicates; FIG. 2
[3] = test system: MCD diet fatty liver rats given E coli endotoxin (LPS); assay: Methionine-choline-deficient (MCD) diet rat model with LPS second hit; format: in vivo, Sprague Dawley rats; settings: 6 h after LPS 2 mg/kg IP, n=3, not statistically significant
STAM model of NASH = assay: In vivo efficacy study in STAM model of NASH; parameters: Steatosis score / Inflammation score / Ballooning score: scale not given here; settings: for NAS (NAFLD Activity Score) compared with the Vehicle group, in words: HE-stained liver sections; for NAS (NAFLD Activity Score) compared with the Vehicle group, in words / Fibrosis area (Sirius red-positive area) compared with the Vehicle group: week 9; for Fibrosis area (Sirius red-positive area) compared with the Vehicle group: Sirius red-stained liver sections; for Ballooning score / Inflammation score / NAS (NAFLD activity score) / Steatosis score: mean ± SEM, twice daily from 6 to 9 weeks of age, Telmisartan 10 mg/kg oral, nalmefene/naltrexone 5 mg/kg s.c.
Source text: FIG. 3 sets out representative photomicrographs of HE-stained sections of livers from STAM model of NASH. Sections were cut from paraffin blocks of liver tissue prefixed in Bouin's solution and stained with Lillie-Mayer's Hematoxylin and eosin solution.
To visualize collagen deposition, Bouin's-fixed left lateral liver sections were stained using picro-Sirius red solution (Waldeck, Germany). b) For quantitative analysis of fibrosis area, bright field images of Sirius red-stained sections were captured around the central vein using a digital camera (DFC295; Leica, Germany) at 200-fold magnification, and the positive areas in 5 fields/section were measured using ImageJ software (National Institute of Health, USA). Individual values and mean±SEM for each treatment group are presented.
General Procedure NASH was induced in male C57BL/6 mice by a single subcutaneous injection of 200 μg streptozotocin solution 2 days after birth and feeding with high fat diet (HFD, 57 kcal % fat, Cat# HFD32, CLEA Japan, Japan) after 4 weeks of age. The animals were divided into groups of six each and were orally administered vehicle (1% Tween80) at 10 mL/kg or Telmisartan at 10 mg/kg twice daily from 6 to 9 weeks of age. […] The animals were sacrificed at week 9.

SMILES	Prevention of liver injury following LPS in fatty liver rats [1]	Prevention of liver injury following LPS in fatty liver rats ([1]; listed as Nalmefene)	Serum ALT change, in words ([1]; 20 mg/kg oral once daily 4 weeks)	Serum ALT ([1]; 30 mg/kg oral once daily 4 weeks, 6 h after LPS 2 mg/kg IP)	Serum ALT change, in words ([1]; 30 mg/kg oral once daily 4 weeks)	Liver histopathology finding ([1]; MCD and Compound A treated rats, FIG. 7)	Liver histopathology finding ([1]; MCD+LPS+Compound A treated rats, FIG. 7)	Hepatic fat accumulation (histopathology) ([1]; treated rats compared to control, FIG. 7)	LPS/time-dependent increase in TNF-α released by Kupffer cells (Kupffer cells)	LPS-induced p38 MAP kinase phosphorylation [2]	Decrease of elevated serum ALT levels ([3]; 5 mg/kg oral once daily 4 weeks) [%]	Decrease of elevated serum ALT levels ([3]; 10 mg/kg oral once daily 4 weeks) [%]	Mortality during the treatment period (STAM model of NASH; 5 mg/kg s.c. twice daily, before week 9)	NAS (NAFLD Activity Score) compared with the Vehicle group, in words (STAM model of NASH)	Fibrosis area (Sirius red-positive area) compared with the Vehicle group (STAM model of NASH)	Ballooning score (STAM model of NASH)	Inflammation score (STAM model of NASH)	NAS (NAFLD activity score) (STAM model of NASH)	Steatosis score (STAM model of NASH)	Mean body weight during the treatment period (STAM model of NASH; 6 to 9 weeks of age)
C=C1CC[C@@]2(O)C3Cc4ccc(O)c5c4C2(CCN3CC2CC2)C1O5 (stereo in doubt) [Compound A, 17-cyclopropylmethyl-4,5α-epoxy-6-methylenemorphinan-3,14-diol]	dose-dependent prevention of liver injury	demonstrated efficacy in preventing inflammatory liver damage	further decrease that was significant	94.9+/−5.5 U/L	further decrease that was significant	slight periportal chronic inflammation (mild nonspecific chronic hepatitis)	slight periportal chronic inflammation	prevents hepatic fat accumulation	inhibited	reduced	~50	~50	one out of six mice was found dead	tended to show decrease	tended to shown decrease	0.40 ± 0.24	1.80 ± 0.20	3.00 ± 0.63	0.80 ± 0.49	–
O=C1CC[C@@]2(O)C3Cc4ccc(O)c5c4C2(CCN3CC2CC2)C1O5 (stereo in doubt) [Compound B, 17-cyclopropylmethyl-4,5α-epoxy-6-oxomorphinan-3,14-diol]	–	–	–	–	–	–	–	–	–	–	–	–	–	significant decreases	significantly decreased	0.00 ± 0.00	1.67 ± 0.33	2.17 ± 0.40	0.50 ± 0.22	–
CCCc1nc2c(C)cc(-c3nc4ccccc4n3C)cc2n1Cc1ccc(-c2ccccc2C(=O)O)cc1 [Telmisartan]	–	–	–	–	–	–	–	–	–	–	–	–	–	significant decreases	significantly decreased	1.00 ± 0.26	1.17 ± 0.48	2.67 ± 0.56	0.50 ± 0.22	gradually decreased
